In patent US10172355B2, “Safened herbicidal compositions including 4-amino-3-chloro-5-fluoro-6-(4-chloro-2-fluoro-3-methoxyphenyl)pyridine-2-carboxylic acid or a derivative thereof for use in rice” (Dow AgroSciences LLC, priority 2012, dated 2019):
Read-outs that look alike come from different tables or passages of the source.

Key:
ORYSA=Orysa sativa, Rice = test: Postemergence foliar-applied herbicides and safeners in direct-seeded rice, visual injury; type: in vivo; conditions: foliar; for Visual Injury (%) - 21 DAA ORYSA-‘Clearfield 171’ Obs / Visual Injury (%) - 21 DAA ORYSA-‘Neptune’ Obs / Visual Injury (%) - 21 DAA ORYSA-‘Wells’ Obs: Tables 1,2,7,8; for Visual crop injury (%) at 140 g/ha / Visual crop injury (%) at 280 g/ha: Oryza sativa, 480 h, read-out: Visual Injury (%) - 20 DAA ORYSA-‘Clearfield 171’ Obs
Text: (§1) Seeds or nutlets of the desired test plant species were planted in a soil matrix prepared by mixing a loam or sandy loam soil (e.g., 28.6 percent silt, 18.8 percent clay, and 52.6 percent sand, with a pH of about 5.8 and an organic matter content of about 1.8 percent) and calcareous grit in an 80 to 20 ratio. The soil matrix was contained in plastic pots with a surface area of 84.6 square centimeters (cm^2). When required to ensure good germination and healthy plants, a fungicide treatment and/or other chemical or physical treatment was applied. The plants were grown for 8-22 days in a greenhouse with an approximate 14 hr photoperiod which was maintained at about 29° C. during the day and 26° C. during the night. Nutrients (Peters Excel 15-5-15 5-Ca 2-Mg and iron chelate) were applied in the irrigation solution as needed and water was added on a regular basis. Supplemental lighting was provided with overhead metal halide 1000-Watt lamps as necessary. The plants were employed for testing when they reached the second or third true leaf stage.
(§2) Treatments consisted of the acid or esters of 4-amino-3-chloro-5-fluoro-6-(4-chloro-2-fluoro-3-methoxy-phenyl)pyridine-2-carboxylic acid (compound A) and various safener components alone and in combination. Forms of compound A were applied on an acid equivalent basis. Safener components were applied on an active ingredient or acid equivalent basis depending on the compound.
(§3) Treatment requirements were calculated based upon the rates being tested, the concentration of active ingredient or acid equivalent in the formulation, and a 12 mL application volume at a rate of 187 L/ha.
(§4) For treatments comprised of formulated compounds, measured amounts of compounds were placed individually in 25 mL glass vials and diluted in a volume of 1.25% (v/v) Agri-dex crop oil concentrated to obtain 12× stock solutions. […] Application solutions were prepared by adding an appropriate amount of each stock solution (e.g., 1 mL) and diluted to the appropriate final concentrations with the addition of 10 mL of an aqueous mixture of 1.25% (v/v) Agri-dex crop oil concentrate so that the final spray solutions contained 1.25% (v/v) Agri-dex crop oil concentrate.
(§5) For treatments comprised of technical compounds, weighed amounts were placed individually in 25 mL glass vials and dissolved in a volume of 97:3 v/v acetone/DMSO to obtain 12× stock solutions. […] Application solutions were prepared by adding an appropriate amount of each stock solution (e.g., 1 mL) and diluted to the appropriate final concentrations with the addition of 10 mL of an aqueous mixture of 1.5% (v/v) Agri-dex crop oil concentrate so that the final spray solutions contained 1.25% (v/v) Agri-dex crop oil concentrate. When technical materials were used, the concentrated stock solutions were added to the spray solutions so that the final acetone and DMSO concentrations of the application solutions were […], respectively.
(§6) For treatments comprised of formulated and technical compounds, weighed amounts of the technical materials were placed individually in 25 mL glass vials and dissolved in a volume of 97:3 v/v acetone/DMSO to obtain 12× stock solutions, and measured amounts of the formulated compounds were placed individually in 25 mL glass vials and diluted in a volume of 1.5% (v/v) Agri-dex crop oil concentrate or water to obtain 12× stock solutions. […] Application solutions were prepared by adding an appropriate amount of each stock solution (e.g., 1 mL) and diluted to the appropriate final concentrations with the addition of an appropriate amount of an aqueous mixture of 1.5% (v/v) Agri-dex crop oil concentrate so that the final spray solutions contained 1.25% (v/v) Agri-dex crop oil concentrate. When required, additional water and/or 97:3 v/v acetone/DMSO was added to individual application solutions so that the final acetone and DMSO concentrations of the application solutions being compared were 8.1% and 0.25%, respectively. […]

[1] = tested on: ECHCG=Echinochloa crus-galli; test: Postemergence foliar-applied herbicides and safeners, visual injury of weed; type: in vivo; conditions: foliar; for pest or weed control at 280 g/ha / pest or weed control at 140 g/ha: Echinochloa crus-galli, 480 h, read-out: Visual Injury (%) - 20 DAA ECHCG Obs
Text: as §1, §2, §3, §4, §5, §6

[2] = safener 140 g ai/ha alone, trial of Tables 3,4,6,10,12,14
[3] = safener 280 g ai/ha alone, trial of Tables 3,4,6,10,12,14
[4] = safener 140 g ai/ha alone, trial of Tables 5,9,11,13
[5] = safener 280 g ai/ha alone, trial of Tables 5,9,11,13

SMILES | Visual crop injury (%) at 140 g/ha (ORYSA=Orysa sativa, Rice; [2]) | Visual crop injury (%) at 280 g/ha (ORYSA=Orysa sativa, Rice; [3]) | Visual Injury (%) - 20 DAA ECHCG Obs [1, 3] | Visual crop injury (%) at 140 g/ha (ORYSA=Orysa sativa, Rice; [4]) | Visual crop injury (%) at 280 g/ha (ORYSA=Orysa sativa, Rice; [5]) | pest or weed control at 140 g/ha [1, 4] | pest or weed control at 280 g/ha [1, 5] | Visual Injury (%) - 20 DAA ECHCG Obs [1, 2] | also measured
CCCCCC(C)OC(=O)COc1ccc(Cl)c2cccnc12 (centres unmarked) [Cloquintocet-mexyl] |  |  |  |  |  |  |  |  | Visual Injury (%) - 21 DAA ORYSA-‘Clearfield 171’ Obs (ORYSA=Orysa sativa, Rice; safener 70 g ai/ha alone): 0%; Visual Injury (%) - 21 DAA ORYSA-‘Neptune’ Obs (ORYSA=Orysa sativa, Rice; safener 70 g ai/ha alone): 0%; Visual Injury (%) - 21 DAA ORYSA-‘Wells’ Obs (ORYSA=Orysa sativa, Rice; safener 70 g ai/ha alone): 0%; Visual Injury (%) - 21 DAA ORYSA-‘Clearfield 171’ Obs (ORYSA=Orysa sativa, Rice; safener 140 g ai/ha alone): 0%; Visual Injury (%) - 21 DAA ORYSA-‘Neptune’ Obs (ORYSA=Orysa sativa, Rice; safener 140 g ai/ha alone): 0%; Visual Injury (%) - 21 DAA ORYSA-‘Wells’ Obs (ORYSA=Orysa sativa, Rice; safener 140 g ai/ha alone): 0%; Visual Injury (%) - 21 DAA ORYSA-‘Neptune’ Obs (ORYSA=Orysa sativa, Rice; safener 280 g ai/ha alone): 0%; Visual Injury (%) - 21 DAA ORYSA-‘Wells’ Obs (ORYSA=Orysa sativa, Rice; safener 280 g ai/ha alone): 0%
Cc1ccc(NC(=O)NC(C)(C)c2ccccc2)cc1 [Daimuron, N-(4-methylphenyl)-N′-(1-methyl-1-phenylethyl)-urea] |  |  |  |  |  |  |  |  | Visual Injury (%) - 21 DAA ORYSA-‘Clearfield 171’ Obs (ORYSA=Orysa sativa, Rice; safener 70 g ai/ha alone): 0%; Visual Injury (%) - 21 DAA ORYSA-‘Neptune’ Obs (ORYSA=Orysa sativa, Rice; safener 70 g ai/ha alone): 0%; Visual Injury (%) - 21 DAA ORYSA-‘Wells’ Obs (ORYSA=Orysa sativa, Rice; safener 70 g ai/ha alone): 0%; Visual Injury (%) - 21 DAA ORYSA-‘Clearfield 171’ Obs (ORYSA=Orysa sativa, Rice; safener 140 g ai/ha alone): 0%; Visual Injury (%) - 21 DAA ORYSA-‘Neptune’ Obs (ORYSA=Orysa sativa, Rice; safener 140 g ai/ha alone): 0%; Visual Injury (%) - 21 DAA ORYSA-‘Wells’ Obs (ORYSA=Orysa sativa, Rice; safener 140 g ai/ha alone): 0%; Visual Injury (%) - 21 DAA ORYSA-‘Neptune’ Obs (ORYSA=Orysa sativa, Rice; safener 280 g ai/ha alone): 0%; Visual Injury (%) - 21 DAA ORYSA-‘Wells’ Obs (ORYSA=Orysa sativa, Rice; safener 280 g ai/ha alone): 0%
C=CCN(CC=C)C(=O)C(Cl)Cl [Dichlormid, N,N-diallyl-2,2-dichloroacetamide] | 0% | 0% |  |  |  |  |  |  | pest or weed control at 280 g/ha [1, 3]: 0%
CC1(C)CN2C(=O)CCC2(C)N(C(=O)C(Cl)Cl)C1 (centres unmarked) [Dicyclonon] |  |  | 0% |  |  |  |  |  | Visual Injury (%) - 20 DAA ORYSA-‘Clearfield 171’ Obs (ORYSA=Orysa sativa, Rice; [2]): 0%; Visual Injury (%) - 20 DAA ORYSA-‘Clearfield 171’ Obs (ORYSA=Orysa sativa, Rice; [4]): 0%; Visual Injury (%) - 20 DAA ORYSA-‘Clearfield 171’ Obs (ORYSA=Orysa sativa, Rice; [3]): 3%; Visual Injury (%) - 20 DAA ORYSA-‘Clearfield 171’ Obs (ORYSA=Orysa sativa, Rice; [5]): 0%; Visual Injury (%) - 20 DAA ECHCG Obs [1, 5]: 3%
CC(C)(SC(=O)N1CCCCC1)c1ccccc1 [Dimepiperate, S-(1-methyl-1-phenylethyl)1-piperidine-carbothioate, reference compound] | 7% | 3% |  |  |  |  |  |  | pest or weed control at 140 g/ha [1, 2]: 0%; pest or weed control at 280 g/ha [1, 3]: 0%
Clc1cc(Cl)nc(-c2ccccc2)n1 [Fenclorim, 4,6-dichloro-2-phenylpyrimidine, reference compound] | 0% | 0% | 0% | 0% | 0% | 0% | 0% | 0% | 
CC1(C)OC(c2ccco2)CN1C(=O)C(Cl)Cl (centres unmarked) [Furilazole, 3-(dichloroacetyl)-5-(2-furanyl)-2,2-dimethyl-oxazolidine, reference compound] | 7% | 18% | 0% | 0% | 0% | 0% | 0% | 0% | 
O=C1OC(=O)c2cccc3cccc1c23 [Naphthalic anhydride, 1H,3H-naphtho[1,8-cd]pyran-1,3-dione, reference compound] | 0% | 0% | 0% | 0% | 3% | 0% | 0% | 0% | 
